This test addresses human recombinant KAT-II (Homo sapiens (Human), UniProt Q8N5Z0). The test can be described thus: KAT-II inhibitory test. It is filed as biochemical. Conditions: 3.0 μmol/L kynurenine, 37° C., 1 hr, pH 8.0; kynurenic acid quantified by HPLC. As for the experimental part:
The compounds described in the above-mentioned Examples were used for the KAT-II inhibitory test.
Preparation of Human Recombinant KAT-II
Human recombinant KAT-II was prepared as follows.
His tag and maltose binding protein tag were added to the N-terminal of a gene encoding human KAT-II (Genbank accession number: AF481738.1), and the obtained gene was incorporated into pET32 (Merck Nihon Millipore), which is an Escherichia coli expression vector. Human recombinant KAT-II produced by BL21(DE3) Escherichia coli (Merck Nihon Millipore, 69450) transformed using the plasmid was purified using an amylose resin column (New England Biolabs, #800-21 L).
The inhibitory action of the test compound on human recombinant KAT-II was determined by the following method.
To a reaction mixture (45 μL) containing 3.0 μmol/L kynurenine, 10 μmol/L pyridoxal phosphate, 2.0 ng/μL human recombinant KAT-II, and 150 mmol/L tris(hydroxymethyl)aminomethane-acetate buffer (pH 8.0) was added a 10% dimethyl sulfoxide solution (5 μL) of each test compound prepared, and the mixture was reacted at 37° C. for 1 hr. After the reaction, 50% trichloroacetic acid (5 μL) was added to terminate the reaction.
The resultant kynurenic acid was quantified as follows by high performance liquid chromatography. An enzyme reaction mixture was separated by an octadecylsilane reversed-phase column (SC-50DS, Eicom Corporation; mobile phase: 250 mmol/L zinc acetate, 50 mmol/L sodium acetate, and 5.0% acetonitrile (pH 6.2)) incubated at 30° C., and kynurenic acid was quantified using a fluorescence detector (RF-20Axs, Shimadzu Corporation) at excitation wavelength 354 nm, detection wavelength 460 nm. The analytical curve was drawn every time by an external standard method. Each test compound was tested by dual measurement at each concentration.
Chain of human recombinant KAT-II (Q8N5Z0 30-425): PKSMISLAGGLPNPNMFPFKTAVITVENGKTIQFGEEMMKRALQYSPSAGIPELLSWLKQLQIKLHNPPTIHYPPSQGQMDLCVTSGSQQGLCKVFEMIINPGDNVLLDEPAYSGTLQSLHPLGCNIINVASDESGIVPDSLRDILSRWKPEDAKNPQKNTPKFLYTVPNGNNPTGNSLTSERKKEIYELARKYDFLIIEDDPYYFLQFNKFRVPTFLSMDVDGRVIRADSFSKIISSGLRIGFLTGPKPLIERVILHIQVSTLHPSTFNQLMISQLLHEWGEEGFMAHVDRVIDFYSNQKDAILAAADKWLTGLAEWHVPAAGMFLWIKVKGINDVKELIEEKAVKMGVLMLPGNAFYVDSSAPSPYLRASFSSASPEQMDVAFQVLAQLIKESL
Take `O=C(Oc1ccccc1)N1CCC[C@@H]1c1nc2c(=O)[nH]c(N3CCCCC3)nc2s1` [Example 107, (R)-2-[7-oxo-5-(piperidin-1-yl)-6,7-dihydro[1,3]thiazolo[5,4-d]pyrimidin-2-yl]pyrrolidine-1-carboxylic acid phenyl ester]: the IC50 (in general, the point on the concentration scale where inhibition reaches its midpoint) is 46 nM.

With `CCc1nc2sc([C@H]3CCCN3C(=O)Oc3ccccc3)nc2c(=O)n1Cc1ccc(OC)cc1OC` [Example 111, (R)-2-[6-(2,4-dimethoxybenzyl)-5-ethyl-7-oxo-6,7-dihydro[1,3]thiazolo[5,4-d]pyrimidin-2-yl]pyrrolidine-1-carboxylic acid phenyl ester], the IC50 amounted to 270 nM.

As for `CCc1nc2sc([C@H]3CCCN3C(=O)Oc3ccccc3)nc2c(=O)[nH]1` [Example 114, (R)-2-(5-ethyl-7-oxo-6,7-dihydro[1,3]thiazolo[5,4-d]pyrimidin-2-yl)pyrrolidine-1-carboxylic acid phenyl ester], the IC50 is 29 nM.

Consider `CC1(c2nc3sc([C@H]4CCCN4C(=O)Oc4ccccc4)nc3c(=O)[nH]2)COC1` [Example 116, (R)-2-[5-(3-methyloxetan-3-yl)-7-oxo-6,7-dihydro[1,3]thiazolo[5,4-d]pyrimidin-2-yl]pyrrolidine-1-carboxylic acid phenyl ester], for which the IC50 came to 14 nM.

Consider `Cc1noc(-c2nc3sc([C@H]4CCCN4C(=O)Oc4ccccc4)nc3c(=O)[nH]2)n1` [Example 120, (R)-2-[5-(3-methyl-[1,2,4]oxadiazol-5-yl)-7-oxo-6,7-dihydro[1,3]thiazolo[5,4-d]pyrimidin-2-yl]pyrrolidine-1-carboxylic acid phenyl ester], for which the IC50 stood at 4.7 nM.

On to `CC(C)(F)c1nc2sc(N3CCCN3C(=O)Oc3ccccc3)nc2c(=O)[nH]1` [Example 131, 2-[5-(2-fluoropropan-2-yl)-7-oxo-6,7-dihydro[1,3]thiazolo[5,4-d]pyrimidin-2-yl]pyrazolidine-1-carboxylic acid phenyl ester], for which the IC50 was 110 nM.

As for `Cc1cccc(OC(=O)N2CCCN2c2nc3c(=O)[nH]c(C(C)(C)F)nc3s2)c1` [Example 132, 2-[5-(2-fluoropropan-2-yl)-7-oxo-6,7-dihydro[1,3]thiazolo[5,4-d]pyrimidin-2-yl]pyrazolidine-1-carboxylic acid 3-methylphenyl ester], the IC50 turned out to be 51 nM.

Consider `CC(C)(F)c1nc2sc(N3CCCN3C(=O)Cc3ccccc3)nc2c(=O)[nH]1` [Example 133, 5-(2-fluoropropan-2-yl)-2-[2-(phenylacetyl)pyrazolidin-1-yl]-6H-[1,3]thiazolo[5,4-d]pyrimidin-7-one], for which the 50% inhibitory concentration (IC50) was found to be 150 nM.

`Cc1cccc(CC(=O)N2CCCN2c2nc3c(=O)[nH]c(C(C)(C)F)nc3s2)c1` [Example 134, 5-(2-fluoropropan-2-yl)-2-{2-[2-(3-methylphenyl)acetyl]pyrazolidin-1-yl}-6H-[1,3]thiazolo[5,4-d]pyrimidin-7-one]: the IC50 came to 230 nM.

For `CC(C)c1nc2sc([C@H]3CCCN3C(=O)Oc3ccccc3)nc2c(=O)n1C` [Example 135, (R)-2-[6-methyl-7-oxo-5-(propan-2-yl)-6,7-dihydro[1,3]thiazolo[5,4-d]pyrimidin-2-yl]pyrrolidine-1-carboxylic acid phenyl ester], the IC50 was found to be 23 nM.

Take `O=C(Oc1ccccc1)N1CCC[C@@H]1c1nc2c(=O)[nH]c(-c3ccccc3F)cc2s1` [Example 137, (R)-2-[6-(2-fluorophenyl)-4-oxo-4,5-dihydro[1,3]thiazolo[4,5-c]pyridin-2-yl]pyrrolidine-1-carboxylic acid phenyl ester]: the IC50 came to 69 nM.

Consider `O=C(Oc1ccccc1)N1CCC[C@@H]1c1nc2c(=O)[nH]c(C(F)(F)F)cc2s1` [Example 138, (R)-2-(4-oxo-6-trifluoromethyl-4,5-dihydro[1,3]thiazolo[4,5-c]pyridin-2-yl)pyrrolidine-1-carboxylic acid phenyl ester], for which the IC50 was found to be 390 nM.

`CC(C)c1cc(=O)n2nc([C@H]3CCCN3C(=O)Oc3ccc(F)cc3)sc2n1` [Example 140, (R)-2-[5-oxo-7-(propan-2-yl)-5H-[1,3,4]thiadiazolo[3,2-a]pyrimidin-2-yl]pyrrolidine-1-carboxylic acid 4-fluorophenyl ester]: the half-maximal inhibitory concentration (IC50) amounted to 77 nM.

Turning to `CC(C)c1cc(=O)n2nc([C@H]3CCCN3C(=O)Cc3ccccc3)sc2n1` [Example 142, 2-[(R)-1-(phenylacetyl)pyrrolidin-2-yl]-7-(propan-2-yl)-5H-[1,3,4]thiadiazolo[3,2-a]pyrimidin-5-one], the IC50 came to 980 nM.

Regarding `CC(C)c1cc(=O)n2nc([C@H]3CCCN3C(=O)Cc3ccc(F)cc3)sc2n1` [Example 143, 2-{(R)-1-[2-(4-fluorophenyl)acetyl]pyrrolidin-2-yl}-7-(propan-2-yl)-5H-[1,3,4]thiadiazolo[3,2-a]pyrimidin-5-one], the IC50 is 2200 nM.

`CC(C)c1cc(=O)n2nc([C@H]3CCCN3C(=O)OCc3ccccc3)sc2n1` [Example 144, (R)-2-[5-oxo-7-(propan-2-yl)-5H-[1,3,4]thiadiazolo[3,2-a]pyrimidin-2-yl]pyrrolidine-1-carboxylic acid benzyl ester]: the IC50 turned out to be 720 nM.

Turning to `CC(C)c1cc(=O)n2nc([C@H]3CCCN3C(=O)COc3ccccc3)sc2n1` [Example 145, 2-[(R)-1-(2-phenoxyacetyl)pyrrolidin-2-yl]-7-(propan-2-yl)-5H-[1,3,4]thiadiazolo[3,2-a]pyrimidin-5-one], the IC50 worked out at 1500 nM.

Take `CCc1cc(=O)n2nc([C@H]3CCCN3C(=O)Oc3ccccc3)sc2n1` [Example 146, (R)-2-(7-ethyl-5-oxo-5H-[1,3,4]thiadiazolo[3,2-a]pyrimidin-2-yl)pyrrolidine-1-carboxylic acid phenyl ester]: the half-maximal inhibitory concentration (IC50) was 140 nM.

For the compound `CCc1c(C)nc2sc([C@H]3CCCN3C(=O)Oc3ccccc3)nn2c1=O` [Example 148, (R)-2-(6-ethyl-7-methyl-5-oxo-5H-[1,3,4]thiadiazolo[3,2-a]pyrimidin-2-yl)pyrrolidine-1-carboxylic acid phenyl ester], the IC50 is 230 nM.

For `O=C(Oc1ccccc1)N1CCC[C@@H]1c1nn2c(=O)c3c(nc2s1)CCCC3` [Example 149, (R)-2-(5-oxo-6,7,8,9-tetrahydro-5H-[1,3,4]thiadiazolo[2,3-b]quinazolin-2-yl)pyrrolidine-1-carboxylic acid phenyl ester], the IC50 stood at 160 nM.

`CC(C)c1nc2sc([C@H]3CCCN3C(=O)Oc3ccccc3)nn2c(=O)c1Cl` [Example 153, (R)-2-[6-chloro-5-oxo-7-(propan-2-yl)-5H-[1,3,4]thiadiazolo[3,2-a]pyrimidin-2-yl]pyrrolidine-1-carboxylic acid phenyl ester]: the half-inhibitory concentration (IC50) is 48 nM.

As for `O=C(Oc1ccccc1)N1CCC[C@@H]1c1nn2c(=O)c3cc(F)ccc3nc2s1` [Example 155, (R)-2-(7-fluoro-5-oxo-5H-[1,3,4]thiadiazolo[2,3-b]quinazolin-2-yl)pyrrolidine-1-carboxylic acid phenyl ester], the IC50 worked out at 320 nM.

Regarding `CC(C)c1cc(=O)n2nc([C@H]3CCCN3C(=O)NCc3ccccc3)sc2n1` [Example 157, (R)-N-benzyl-2-[5-oxo-7-(propan-2-yl)-5H-[1,3,4]thiadiazolo[3,2-a]pyrimidin-2-yl]pyrrolidine-1-carboxamide], the IC50 is 470 nM.

Consider `CC(C)c1cc(=O)n2nc([C@H]3CCCN3C(=O)NCc3ccccc3Cl)sc2n1` [Example 158, (R)-N-(2-chlorobenzyl)-2-[5-oxo-7-(propan-2-yl)-5H-[1,3,4]thiadiazolo[3,2-a]pyrimidin-2-yl]pyrrolidine-1-carboxamide], for which the IC50 was found to be 170 nM.

On to `CC(C)c1cc(=O)n2nc([C@H]3CCCN3C(=O)Nc3ccccc3)sc2n1` [Example 160, (R)-2-[5-oxo-7-(propan-2-yl)-5H-[1,3,4]thiadiazolo[3,2-a]pyrimidin-2-yl]-N-phenylpyrrolidine-1-carboxamide], for which the IC50 was 5200 nM.

As for `CC(C)c1cc(=O)n2nc([C@H]3CCCN3C(=O)CN3CCCc4ccccc43)sc2n1` [Example 166, 2-{(R)-1-[(3,4-dihydroquinolin-1(2H)-yl)acetyl]pyrrolidin-2-yl}-7-(propan-2-yl)-5H-[1,3,4]thiadiazolo[3,2-a]pyrimidin-5-one], the IC50 is 190 nM.

Turning to `CC(C)c1cc(=O)n2nc([C@H]3CCCN3C(=O)NC3(c4ccccc4)CC3)sc2n1` [Example 167, (R)-N-(1-phenylcyclopropyl)-2-[5-oxo-7-(propan-2-yl)-5H-[1,3,4]thiadiazolo[3,2-a]pyrimidin-2-yl]pyrrolidine-1-carboxamide], the half-maximal inhibitory concentration (IC50) stood at 90 nM.

As to `CC(C)c1cc(=O)n2nc([C@H]3CCCN3C(=O)N[C@@H]3CCc4ccccc43)sc2n1` [Example 168, (R)-N-((R)-indan-1-yl)-2-[5-oxo-7-(propan-2-yl)-5H-[1,3,4]thiadiazolo[3,2-a]pyrimidin-2-yl]pyrrolidine-1-carboxamide], the IC50 is 410 nM.

The values above are taken from patent US10065972B2, “Bicyclic or tricyclic heterocyclic compound” (MITSUBISHI TANABE PHARMA CORPORATION, priority 2014, dated 2018).
